In publication PMC5452050 (ACS Omega, 2017) one finds Kd and IC50 data, which are given here for three molecules.

One experiment has as its target T1, FLT3 (N841I) (Homo sapiens, UniProt P36888, N841I).
T1 sequence (P36888 27-993 N841I): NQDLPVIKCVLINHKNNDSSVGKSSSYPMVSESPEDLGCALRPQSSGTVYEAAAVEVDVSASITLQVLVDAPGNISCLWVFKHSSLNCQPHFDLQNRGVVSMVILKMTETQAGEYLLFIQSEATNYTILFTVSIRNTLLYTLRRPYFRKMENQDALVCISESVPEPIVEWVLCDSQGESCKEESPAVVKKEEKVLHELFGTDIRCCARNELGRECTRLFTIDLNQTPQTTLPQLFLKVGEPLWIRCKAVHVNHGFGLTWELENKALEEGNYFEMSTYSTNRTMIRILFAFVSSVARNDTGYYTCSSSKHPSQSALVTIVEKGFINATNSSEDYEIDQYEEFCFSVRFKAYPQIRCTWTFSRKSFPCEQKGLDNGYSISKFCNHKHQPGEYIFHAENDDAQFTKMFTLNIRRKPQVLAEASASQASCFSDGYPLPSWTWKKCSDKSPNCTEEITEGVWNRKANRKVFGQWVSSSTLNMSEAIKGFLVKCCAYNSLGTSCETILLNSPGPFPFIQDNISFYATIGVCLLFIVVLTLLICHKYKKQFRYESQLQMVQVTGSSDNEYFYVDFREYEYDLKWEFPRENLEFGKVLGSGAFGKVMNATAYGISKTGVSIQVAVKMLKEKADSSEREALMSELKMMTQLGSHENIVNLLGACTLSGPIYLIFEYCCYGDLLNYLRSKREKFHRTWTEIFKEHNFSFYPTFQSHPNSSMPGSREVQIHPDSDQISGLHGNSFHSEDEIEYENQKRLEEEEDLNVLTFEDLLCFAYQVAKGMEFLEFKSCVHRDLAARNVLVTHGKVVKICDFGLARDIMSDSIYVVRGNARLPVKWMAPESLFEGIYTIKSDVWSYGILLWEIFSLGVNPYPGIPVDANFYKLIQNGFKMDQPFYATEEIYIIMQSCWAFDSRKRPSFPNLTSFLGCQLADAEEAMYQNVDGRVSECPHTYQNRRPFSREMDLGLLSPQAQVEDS
Description: Kd determination. It counts as binding.

In another experiment the target is T2, FLT3 (D835H) (Homo sapiens, UniProt P36888, D835H).
T2 sequence (P36888 27-993 D835H): T1 sequence (P36888 27-993 N841I) with D809H, I815N
Briefly: Kd determination. It counts as binding.

The test system of experiment [1] is MOLM13^FLT3-ITD/D835Y cells. Briefly: MOLM13 cell viability. The class given is cell-based. The note with it: Homo sapiens, MOLM-13, 72 h, read-out: MOLM13^FLT3-ITD/D835Y IC50.
The target in another experiment is T3, FLT3 (ITD, F691L) (Homo sapiens, UniProt P36888, F691L/ITD).
T3 sequence (P36888 564-993 F691L): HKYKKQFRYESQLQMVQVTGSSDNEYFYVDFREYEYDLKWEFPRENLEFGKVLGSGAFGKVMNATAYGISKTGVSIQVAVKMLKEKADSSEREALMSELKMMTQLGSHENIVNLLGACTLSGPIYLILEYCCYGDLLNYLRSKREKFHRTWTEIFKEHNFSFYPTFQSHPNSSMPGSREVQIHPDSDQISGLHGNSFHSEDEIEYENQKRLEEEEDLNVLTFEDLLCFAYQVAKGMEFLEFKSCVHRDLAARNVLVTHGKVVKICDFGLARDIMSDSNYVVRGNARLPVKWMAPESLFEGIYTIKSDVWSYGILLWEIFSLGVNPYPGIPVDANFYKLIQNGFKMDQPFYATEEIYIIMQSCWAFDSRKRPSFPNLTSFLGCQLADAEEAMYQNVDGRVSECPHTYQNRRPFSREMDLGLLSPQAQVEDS
Description: Kd determination. The class given is binding.

Changes are numbered by the printed parent chain. Some results are limits rather than exact numbers.

For orientation: Kd means the concentration at which binding is half-saturated. Higher therefore signals lower affinity. As to `CC(C)Nc1ccnc(Nc2cccc(-c3cccnc3)c2)n1` [Compound 5e, N^4-Isopropyl-N^2-(3-(pyridin-3-yl)phenyl)pyrimidine-2,4-diamine], the dissociation constant Kd on FLT3 (N841I) stood at 11 nM; at FLT3 (D835H), 1.2 nM; at FLT3 (ITD, F691L), 11 nM. For the same molecule, the IC50 in experiment [1] was 82 nM.
Take `c1cncc(-c2cccc(Nc3nccc(NC4CCCCC4)n3)c2)c1` [Compound 1, N^4-Cyclohexyl-N^2-(3-(pyridin-3-yl)phenyl)pyrimidine-2,4-diamine]: the Kd stood at 48 nM on FLT3 (N841I); 22 nM at FLT3 (D835H); 270 nM on FLT3 (ITD, F691L). Also, the IC50 in experiment [1] was 1150 nM.
For `CC(C)Nc1ccnc(Nc2ccccc2-c2ccccc2)n1` [Compound 6a, N^2-([1,1′-Biphenyl]-2-yl)-N^4-isopropylpyrimidine-2,4-diamine] the same measures were greater than 10000 nM, greater than 10000 nM, greater than 10000 nM and 4260 nM.
